Measured values reported in patent publication US20090209581A1, “NITROXIDES FOR USE IN TREATING OR PREVENTING IMMUNOLOGICAL DISEASES” (priority 2005, published 2009).

Key:
[1] = tested on: glucocorticoid-induced leucine zipper (GILZ); test: Gene expression in cardiac tissue of mice after Tempol administration, chip-based microarray; format: in vivo
Experimental: To assess the effects of Tempol on gene expression, Tempol was administered to experimental mice at a dose of 5 mg/g of food from 14 months to 31 months after birth. Mice receiving the same food without the addition of Tempol were used as a negative control. At the age of 31 months, the experimental animals were sacrificed and the hearts were surgically removed. The expression of a broad spectrum of genes in the cardiac tissue was assessed using chip-based microarray technology. Such chips are well known in the art and are widely used to assess gene expression.

[2] = tested on: collagen type I alpha 1 (COL1A1); test: Gene expression in adipose tissue of mice after Tempol administration, Affymetrix MOE430A 2.0 array; format: in vivo
Experimental: (§1) In a further gene expression study, Tempol was administered to experimental mice at a dose of 5 g/kg of diet from 12 months through 15 months. Mice receiving the same diet without the addition of Tempol were used as a negative control. At the age of 15 months, the adipose tissue of the experimental animals was obtained. The expression of a broad spectrum of genes in the adipose tissue was assessed using chip-based microarray technology. Specifically, in this case an Affymetrix MOE430A 2.0 array, containing 12,960 genes, was employed. Such chips are well known in the art and are widely used to assess gene expression.

[3] = tested on: complement component 6 (C6); test: as above; format: in vivo
Experimental: as §1

[4] = tested on: glucocorticoid-induced leucine zipper; test: Protein level in circulating monocytes of patient after Tempol treatment; format: in vivo, human
Experimental: (§2) A 70-kilogram patient diagnosed with an autoimmune disease is administered a dose of 1500 mg of Tempol per day for 180 days. This may be administered in a single dose, or may be administered as a number of smaller doses over a 24-hour period: for example, three 500-mg doses at eight-hour intervals. Following treatment, the protein level of glucocorticoid-induced leucine zipper in circulating monocytes is increased, and the protein levels of complement component 6 in plasma and of collagen type 1 A1 in fibroblasts is reduced.
as §2, with “patient” for “patient diagnosed with an autoimmune disease”, “days prior to receiving an organ transplant.” for “days.”

complement component 6 = test: Protein level in plasma of patient after Tempol treatment; format: in vivo, human
Experimental: as §2
as §2, with “patient” for “patient diagnosed with an autoimmune disease”, “days prior to receiving an organ transplant.” for “days.”

collagen type 1 A1 = test: Protein level in fibroblasts of patient after Tempol treatment; format: in vivo, human
Experimental: as §2
as §2, with “patient” for “patient diagnosed with an autoimmune disease”, “days prior to receiving an organ transplant.” for “days.”

[5] = 5 g/kg of diet from 12 through 15 months, microarray signal
[6] = Example 1: patient with autoimmune disease, 1500 mg per day for 180 days
[7] = Example 2: 1500 mg per day for 180 days prior to organ transplant

## CC1(C)CC(O)CC(C)(C)N1[O] [Tempol, 4-hydroxy-2,2,6,6-tetramethylpiperidine-1-oxyl]
[1]; TEMPOL-treated vs control mice, upregulated gene
  GILZ Fold change: 2.3
[1]; mouse tp51, 5 mg/g of food from 14 to 31 months, microarray signal
  GILZ (AA097711) expression, TEMPOL-treated mice tp51: 83
[1]; mouse tp52, 5 mg/g of food from 14 to 31 months, microarray signal
  GILZ (AA097711) expression, TEMPOL-treated mice tp52: 33
[1]; mouse tp53, 5 mg/g of food from 14 to 31 months, microarray signal
  GILZ (AA097711) expression, TEMPOL-treated mice tp53: 4
[2]; [5]
  COL1A1 expression, Mean (Tempol-treated mice): 1688
[2]; Tempol-treated vs control mice
  COL1A1 Fold change: −1.28
[3]; [5]
  C6 expression, Mean (Tempol-treated mice): 337
[3]; Tempol-treated vs control mice
  C6 Fold change: −1.85
  C6 expression decrease: decrease in expression
[4]; [6]
  protein level of glucocorticoid-induced leucine zipper in circulating monocytes: increased
[4]; [7]
  protein level of glucocorticoid-induced leucine zipper in circulating monocytes: increased
Complement component 6; [6]
  protein level of complement component 6 in plasma: reduced
Complement component 6; [7]
  protein level of complement component 6 in plasma: reduced
Collagen type 1 A1; [6]
  protein level of collagen type 1 A1 in fibroblasts: reduced
Collagen type 1 A1; [7]
  protein level of collagen type 1 A1 in fibroblasts: reduced
